Literature values, collected in patent US10945989B2, “Perinatal treatment with a flavonoid agonist of the TrkB receptor for BDNF rescues neurogenesis and behavior in the Ts65Dn mouse model of DS” (ALMA MATER STUDIORUM—Universita' di Bologna, priority 2017, dated 2021).

System: Ts65Dn mouse model of DS
Conditions: perinatal treatment, Bianchi et al., 2010b; Guidi et al., 2014; cited from earlier work

For `CNCCC(Oc1ccc(C(F)(F)F)cc1)c1ccccc1` (stereo not shown) [fluoxetine], the “brain development and cognitive performance” value is given as “fully restores brain development and cognitive performance”.
